Assays:
PPARγ ΔAF2 mutant = molecular target: T1, PPARγ ΔAF2 mutant (Mus musculus, UniProt P37238); assay: PPRE-Luc reporter assay, AF-2 helix-truncated PPARγ; type: cell-based
T1 construct: introduce a stop codon and a NheI restriction site after amino acid 489; expressed in transfected cells; host or cells: HEK293
T1 sequence (P37238 1-459 isoform P37238-2): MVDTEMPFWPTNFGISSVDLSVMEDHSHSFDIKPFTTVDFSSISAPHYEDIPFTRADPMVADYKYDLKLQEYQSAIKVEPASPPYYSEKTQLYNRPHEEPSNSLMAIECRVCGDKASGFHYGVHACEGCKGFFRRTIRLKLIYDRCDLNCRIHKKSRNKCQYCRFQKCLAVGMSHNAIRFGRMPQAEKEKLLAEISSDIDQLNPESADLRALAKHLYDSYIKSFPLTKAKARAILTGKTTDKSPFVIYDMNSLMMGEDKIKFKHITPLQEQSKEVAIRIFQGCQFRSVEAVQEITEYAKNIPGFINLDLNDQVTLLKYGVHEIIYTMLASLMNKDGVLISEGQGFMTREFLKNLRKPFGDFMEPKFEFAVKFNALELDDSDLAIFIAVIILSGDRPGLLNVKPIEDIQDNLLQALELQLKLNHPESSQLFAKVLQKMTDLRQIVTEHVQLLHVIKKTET
Description: The-pCMX-Gal4-mPPARγ1 was constructed by fusing the mPPARγ1 coding sequence to the yeast GAL4 DNA binding domain (amino acid 1-147) in the pCMX vector. The AF-2 helix-truncated mutant of mPPARγ1 (PPARγ ΔAF2) was generated by PCR amplification-to introduce a stop codon and a NheI restriction site after amino acid 489, and then-subcloned into the pCMX vector. The PPRE-TK-LUC, MH100-TK-LUC-and DR1-TK-LUC reporters have been described previously (Forman et al., Cell 83:803-812, 1995; Umesono et al., Cell 65:1255-1266, 1991).
For PPARγ activation assay, HEK293 cells were plated in 12-well cell culture plates and maintained in Dulbecco's modified Eagle's medium (DMEM) supplemented with 10% fetal bovine serum (FBS) at 37° C. under 5% CO2. Cells were changed to phenol red-free DMEM supplemented with 10% charcoal-stripped fetal bovine serum 3 hours before transfection by a standard calcium-phosphate precipitation method. Twelve hours after transfection, the cells were washed with phosphate-buffered saline (PBS) and fed again with fresh medium containing the indicated concentrations of compounds. After 36 hours, cells were harvested for β-galactosidase and luciferase activities as described previously (Li et al., Proc Natl Acad Sci USA 94:8479-84, 1997). The average normalized luciferase activity was determined via triplicate experiments. […]

human PPARα = molecular target: T2, human PPARα (Homo sapiens, UniProt Q07869); assay: Gal4-dependent MH100-Luc reporter, human PPARα; type: cell-based
T2 construct: The Gal4-hPPAR LBD constructs were obtained from GlaxoSmithKline; host or cells: HEK293
T2 sequence (Q07869 239-466 limits assumed): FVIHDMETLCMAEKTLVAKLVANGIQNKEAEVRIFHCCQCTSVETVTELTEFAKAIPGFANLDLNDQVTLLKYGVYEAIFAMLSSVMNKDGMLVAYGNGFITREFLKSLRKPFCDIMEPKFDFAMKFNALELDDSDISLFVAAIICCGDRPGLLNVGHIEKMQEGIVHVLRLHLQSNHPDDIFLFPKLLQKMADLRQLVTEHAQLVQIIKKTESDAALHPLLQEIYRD
Method: The pGEX-DRIP205 (527˜970) was obtained from the Sloan-Kettering Cancer Center. The Gal4-hPPAR LBD constructs were obtained from GlaxoSmithKline, Research Triangle Park, NC. The IL8-Luciferase reporter was obtained from Celgene, San Diego, Calif. The plasmids mPPARα, mPPARγ1, mPPARδ , and hRXRα were in the pCMX vector (Umesono et al., Cell 65:1255-1266, 1991).
For PPARγ activation assay, HEK293 cells were plated in 12-well cell culture plates and maintained in Dulbecco's modified Eagle's medium (DMEM) supplemented with 10% fetal bovine serum (FBS) at 37° C. under 5% CO2. […] The average normalized luciferase activity was determined via triplicate experiments. […]
To further confirm activation of PPARγ by AJA, and also to determine PPARγ species specificity, the ability of AJA to activate the chimeric Gal4-DBD/PPAR fusion proteins on a Gal4-dependent MH100-Luc reporter was assessed (FIG. 4A). The PPARs were expressed as Gal4 DBD fusion proteins, which bind to the UAS promoter containing 4 copies of a synthetic Gal4 binding site upstream of the minimal thymidine kinase (TK) promoter. […] Transfected cells were treated with increasing concentrations of AJA from 10-60 μM and the luciferase activities were determined in triplicate experiments. […]

COX-1 = COX-1 (Homo sapiens, UniProt P23219); settings: 0.25-25 μM, Zurier et al. 1998; cited from earlier work
[1] = mouse tail clip assay, cited from earlier work

COX-1, sequence (P23219 24-599): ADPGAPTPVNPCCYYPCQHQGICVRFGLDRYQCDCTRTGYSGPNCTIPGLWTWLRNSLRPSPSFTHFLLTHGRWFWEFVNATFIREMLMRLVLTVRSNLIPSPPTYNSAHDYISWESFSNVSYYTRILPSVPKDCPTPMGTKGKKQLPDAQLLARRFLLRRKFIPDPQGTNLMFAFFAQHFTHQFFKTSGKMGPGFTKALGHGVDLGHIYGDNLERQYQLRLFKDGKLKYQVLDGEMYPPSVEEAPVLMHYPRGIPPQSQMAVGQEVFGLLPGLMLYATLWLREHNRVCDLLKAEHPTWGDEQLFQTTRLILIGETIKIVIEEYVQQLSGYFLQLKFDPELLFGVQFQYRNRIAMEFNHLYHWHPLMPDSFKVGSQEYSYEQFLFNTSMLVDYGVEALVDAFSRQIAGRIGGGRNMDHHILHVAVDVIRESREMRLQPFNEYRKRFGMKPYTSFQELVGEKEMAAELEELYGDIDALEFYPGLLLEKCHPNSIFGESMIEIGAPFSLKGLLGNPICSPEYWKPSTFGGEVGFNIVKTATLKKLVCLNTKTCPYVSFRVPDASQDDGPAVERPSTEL

## CCCCCCC(C)(C)c1cc(O)c2c(c1)OC(C)(C)[C@@H]1CC=C(C(=O)O)C[C@@H]21 [AJA, dimethylheptyl-THC-11-oic acid]
PPARγ ΔAF2 mutant
  activation of PPRE-Luc reporter through PPARγ ΔAF2 mutant: failed to activate expression of the reporter gene
Human PPARα
  activation of human PPARα: did not activate
COX-1
  effect on COX-1 activity: no effect
[1]; Dajani et al. 1999
  analgesic function: potent analgesic function comparable with morphine
[1]; compared with morphine
  duration of analgesic effect: lasted even longer than morphin
